Ki data for 25 compounds are collected here from ChEMBL document CHEMBL1134102, “The binding of arylguanidines at 5-HT(3) serotonin receptors: a structure-affinity investigation” (Bioorg Med Chem Lett, 2001).

Molecules are shown by their SMILES. Some results are limits rather than exact numbers.

The assay concerns the target Serotonin 3 (5-HT3) receptor. Kind of assay: Binding affinity to 5-HT3 serotonin receptor in NG 108-15 neuroblastoma glioma cells using [3H]GR-65630 radioligand.
With `N=C(N)Nc1ccc2c(c1)OCO2`, the Ki is 274 nM. As to `NC(N)=Nc1cccc(Cl)c1`, the Ki was 32 nM.

In turn, `Nc1nc(Nc2cccc(Cl)c2)n[nH]1` returned a Ki of more than 10000 nM.

Turning to `N=C(N)Nc1cc(Cl)c(Cl)c(Cl)c1`, the affinity corresponds to a Ki of 0.7 nM. The value for `NC(N)=Nc1ccc2ccccc2c1` was 18 nM.

The compound `N=C(N)Nc1ccc(Cl)c(Cl)c1` registered a Ki of 3.1 nM. On to `Cc1ccc(NC(=N)N)cc1`, for which the Ki was determined as 442 nM. In the case of `N=C(N)Nc1ccc(Cl)cc1`, affinity was put at a Ki of 326 nM. The value for `N=C(N)NC(=N)Nc1ccc(Cl)cc1` [4-CHLOROPHENYLBIGUANIDE] was 210 nM. The result for `N=C(N)N=C(N)Nc1ccc2ccccc2c1` reads 14 nM; that for `CN(C(=N)N)c1cccc(Cl)c1`, 6200 nM; that for `Cc1ccc(NC(=N)N=C(N)N)cc1`, 890 nM. The value for `N=C(N)NC(=N)Nc1cccc(Cl)c1` was 18 nM; that for `C/N=C(\NC)Nc1cccc(Cl)c1` was more than 10000 nM. Compound `COc1ccc(NC(=N)N)cc1OC` showed a Ki of 2710 nM.

`N=C(N)NC(=N)Nc1ccc(Cl)c(Cl)c1`: the Ki is 12 nM. With `N=C(N)Nc1ccc(C(F)(F)F)cc1`, the Ki was 230 nM. `NC(N)=Nc1cccc(C(F)(F)F)c1` returned a Ki of 2440 nM.

`Clc1cccc(NC2=NCCN2)c1` displayed a Ki of more than 10000 nM. `C/N=C(\N)Nc1cccc(Cl)c1`: affinity was put at a Ki of 450 nM. For the compound `N=C(N)N=C(N)Nc1cc(Cl)cc(Cl)c1`, the Ki was 1.8 nM. On to `N=C(N)Nc1ccc(Cl)c(C(F)(F)F)c1`, for which the Ki was determined as 36 nM. For `N=C(N)NC(=N)Nc1cc(Cl)c(Cl)c(Cl)c1`, the Ki worked out at 2.7 nM. The result for `COc1ccc(NC(=N)N)cc1` reads 990 nM; that for `N=C(N)Nc1cc(Cl)cc(Cl)c1`, 5 nM.
